US9765018B2, “IDO inhibitors” (BRISTOL-MYERS SQUIBB COMPANY, priority 2013, dated 2017)

The compounds below were run against IDO (Homo sapiens (Human), UniProt P14902) (assay: Kynurenine assay in IFN-γ-stimulated Hela cells). Conditions: 20 h, read-out: Hela Kyurenine (IC50).
Format: cell-based
Experimental: Reagents: Hela cells (ATCC, CCL-2)
IFNg (R&D, 28-IF-100)—resuspend at 10 ug/mL in PBS with 0.1% BSA 30% TCA
Ehrlich reagent (2% w/v p-dimethylaminobenzaldehyde in glacial acetic acid)
Cell Lines and Culture Conditions
Hela cancer cell lines were acquired from the American Type Culture Collection. Cells were maintained in phenol red free-RPMI1640 medium containing high glucose and L-glutamine (Invitrogen) supplemented with 10% fetal bovine serum (FBS; Invitrogen). Cell cultures were incubated at 37° C., 5% CO2, and 100% humidity.
Cell Treatment and Kynurenine Assay
Hela cells were seeded on 96-well plates (40,000 cells per well) and allowed to adhere for 5-6 hours. Cells were then treated with vehicle (DMSO) or with IDO inhibitor at a top dose of 30 μM (3-fold dilution all the way down to 1.5 nM). A final concentration of 100 ng/mL of human recombinant IFN-γ (R&D, 28-IF-100) was immediately added to the cells to stimulate IDO expression. Treated cells were then incubated for 20 hours at 37° C. At the end of the 20 h incubation, reactions were terminated by the addition of 30% TCA to each well. Plates were incubated for 30 minutes at 50° C. to hydrolyze N-formylkynurenine to kynurenine. Cells were centrifuged 10 minutes at 2400 rpm. 100 ul of supernatants were transferred to new 96 flat well plates and mixed with 100 ul Ehrlich reagent. The resulting solution was incubated 10 minutes at RT. Absorbance at 490 nm was read using Spectra Max 384 (Molecular Devices).

Chain of IDO (P14902 whole entry): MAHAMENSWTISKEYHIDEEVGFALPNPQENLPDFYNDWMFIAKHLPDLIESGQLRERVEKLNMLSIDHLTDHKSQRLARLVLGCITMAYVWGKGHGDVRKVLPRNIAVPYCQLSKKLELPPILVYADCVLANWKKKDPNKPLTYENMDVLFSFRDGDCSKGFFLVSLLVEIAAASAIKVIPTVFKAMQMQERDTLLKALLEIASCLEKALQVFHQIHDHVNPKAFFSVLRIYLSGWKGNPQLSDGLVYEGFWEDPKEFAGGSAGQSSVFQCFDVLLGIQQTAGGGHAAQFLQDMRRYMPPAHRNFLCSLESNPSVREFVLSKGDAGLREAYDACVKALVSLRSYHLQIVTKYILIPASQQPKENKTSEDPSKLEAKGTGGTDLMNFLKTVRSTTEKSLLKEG

| Compound | IC50 [nM] |
| --- | --- |
| COc1cc(-c2ccc(Oc3ccccc3C(C)(C)C)c(NC(=O)Nc3cccc(C)c3)c2)ccc1C(=O)O [Example 212, 4′-(2-tert-butylphenoxy)-3-methoxy-3′-(3-m-tolylureido) biphenyl-4-carboxylic acid] | 1070 |
| C#CCNC(=O)Nc1cc(-c2ccc(OC)c(C(=O)O)c2)ccc1Oc1ccccc1C(C)(C)C [Example 119, 4′-(2-tert-butylphenoxy)-4-methoxy-3′-(3-prop-2-ynylureido)biphenyl-3-carboxylic acid] | 780 |
| COc1ccc(-c2ccc(Oc3ccccc3C(C)(C)C)c(NC(=O)Nc3cccc(Cl)c3C)c2)cc1C(=O)O [Example 98, 4′-(2-(tert-butyl)phenoxy)-3′-(3-(3-chloro-2-methylphenyl)ureido)-4-methoxy-[1,1′-biphenyl]-3-carboxylic acid] | 160 |
| COc1ccc(-c2ccc(Oc3ccccc3C(C)(C)C)c(NC(=O)Nc3cccc(Cl)c3)c2)cc1C(=O)O [Example 85, 4′-(2-(tert-butyl)phenoxy)-3′-(3-(3-chlorophenyl)ureido)-4-methoxy-[1,1′-biphenyl]-3-carboxylic acid] | 110 |
| COc1ccc(-c2ccc(Oc3ccccc3C(C)(C)C)c(NC(=O)Nc3ccccc3C)c2)cc1C(=O)O [Example 44, 4′-(2-tert-butylphenoxy)-4-methoxy-3′-(3-o-tolylureido)biphenyl-3-carboxylic acid] | 490 |
| COc1ccc(-c2ccc(Oc3ccccc3Cl)c(NC(=O)Nc3ccccc3C)c2)cc1C(=O)O [Example 53, 4′-(2-chlorophenoxy)-4-methoxy-3′-(3-o-tolylureido)biphenyl-3-carboxylic acid] | 2180 |
| Cc1cccc(NC(=O)Nc2cc(-c3cc(Cl)cc(C(=O)O)c3)ccc2Oc2ccccc2C(C)(C)C)c1 [Example 239, 4′-(2-tert-butylphenoxy)-5-chloro-3′-(3-m-tolylureido) biphenyl-3-carboxylic acid] | 1020 |
| COc1ccc(-c2ccc(O[C@@H]3CCCC[C@H]3C)c(NC(=O)Nc3ccc(C)cc3)c2)cc1C(=O)O (relative stereo) [Example 134, 4-methoxy-4′-((trans)-2-methylcyclohexyloxy)-3′-(3-p-tolylureido)biphenyl-3-carboxylic acid] | 1390 |
| CCc1ccccc1Oc1ccc(-c2ccc(OC)c(C(=O)O)c2)cc1NC(=O)Nc1ccccc1Cl [Example 55, 3′-(3-(2-chlorophenyl)ureido)-4′-(2-ethylphenoxy)-4-methoxybiphenyl-3-carboxylic acid] | 110 |
| Cc1ccc(NC(=O)Nc2cc(-c3cccc(C(=O)O)c3)ccc2Oc2ccccc2)cc1 [Example 235, 4′-phenoxy-3′-(3-p-tolylureido) biphenyl-3-carboxylic acid] | 1430 |
| COc1ccc(-c2ccc(Oc3ccccc3C(C)(C)C)c(NC(=O)Nc3ccc(C)cc3)c2)cc1C(=O)NS(C)(=O)=O [Example 41, 4′-(2-tert-butylphenoxy)-4-methoxy-N-(methylsulfonyl)-3′-(3-p-tolylureido)biphenyl-3-carboxamide] | 430 |
| COc1ccc(-c2ccc(Oc3ccccc3Cl)c(NC(=O)Nc3cccc(C)c3)c2)cc1C(=O)O [Example 50, 4′-(2-chlorophenoxy)-4-methoxy-3′-(3-m-tolylureido)biphenyl-3-carboxylic acid] | 900 |
| Cc1cccc(NC(=O)Nc2cc(-c3ccc(C(=O)O)c(Cl)c3)ccc2Oc2ccccc2C(F)(F)F)c1 [Example 204, 3-chloro-3′-(3-m-tolylureido)-4′-(2-(trifluoromethyl)phenoxy)biphenyl-4-carboxylic acid] | 1250 |
| CCc1ccccc1Oc1ccc(-c2ccc(OC)c(C(=O)O)c2)cc1NC(=O)Nc1ccc(C(F)(F)F)cc1 [Example 48, 4′-(2-ethylphenoxy)-4-methoxy-3′-(3-(4-(trifluoromethyl)phenyl)ureido)biphenyl-3-carboxylic acid] | 1230 |
| CC(C)(C)c1ccccc1Oc1ccc(-c2cccc(C(=O)O)c2)cc1NC(=O)Nc1ccccc1 [Example 234, 4′-(2-tert-butylphenoxy)-3′-(3-phenylureido) biphenyl-3-carboxylic acid] | 1850 |
| COc1cccc(NC(=O)Nc2cc(-c3ccc(OC)c(C(=O)O)c3)ccc2Oc2ccccc2C(C)(C)C)c1 [Example 86, 4′-(2-(tert-butyl)phenoxy)-3′-(3-(3-methoxyphenyl)ureido)-4-methoxy-[1,1′-biphenyl]-3-carboxylic acid] | 230 |
| COc1ccc(-c2ccc(Oc3ccccc3C)c(NC(=O)Nc3ccccc3C)c2)cc1C(=O)O [Example 72, 4-methoxy-4′-(o-tolyloxy)-3′-(3-o-tolylureido)biphenyl-3-carboxylic acid] | 380 |

| Compound | IC50 [nM] |
| --- | --- |
| Cc1cccc(NC(=O)Nc2cc(-c3ccccc3-c3nnn[nH]3)ccc2Oc2ccccc2C(C)(C)C)c1 [Example 182, 1-(4-(2-tert-butylphenoxy)-2′-(1H-tetrazol-5-yl)biphenyl-3-yl)-3-m-tolylurea] | 1050 |
| COc1ccc(-c2ccc(Oc3ccccc3C(C)(C)C)c(NC(=O)Nc3ccc(Cl)c(Cl)c3)c2)cc1C(=O)O [Example 105, 4′-(2-(tert-butyl)phenoxy)-3′-(3-(3,4-dichlorophenyl)ureido)-4-methoxy-[1,1′-biphenyl]-3-carboxylic acid] | 370 |
| O=C(Nc1ccc(OC(F)(F)F)cc1)Nc1cc(-c2cc(Cl)cc(C(=O)O)c2)ccc1Oc1ccccc1Cl [Example 260, 5-chloro-4′-(2-chlorophenoxy)-3′-(3-(4-(trifluoromethoxy)phenyl)ureido)biphenyl-3-carboxylic acid] | 5590 |
| CCCNC(=O)Nc1cc(-c2ccc(OC)c(C(=O)O)c2)ccc1Oc1ccccc1C(C)(C)C [Example 89, 4′-(2-(tert-butyl)phenoxy)-3′-(3-(n-propyl)ureido)-4-methoxy-[1,1′-biphenyl]-3-carboxylic acid] | 120 |
| COc1ccc(-c2ccc(Oc3ccccc3C)c(NC(=O)Nc3cccc(C)c3)c2)cc1C(=O)O [Example 70, 4-methoxy-4′-(o-tolyloxy)-3′-(3-m-tolylureido)biphenyl-3-carboxylic acid] | 390 |
| COc1ccc(-c2ccc(Oc3ccccc3C(C)(C)C)c(NC(=O)Nc3ccc(C)c(C)c3)c2)cc1C(=O)O [Example 96, 4′-(2-(tert-butyl)phenoxy)-3′-(3-(3,4-dimethylphenyl)ureido)-4-methoxy-[1,1′-biphenyl]-3-carboxylic acid] | 180 |
| Cc1cccc(NC(=O)Nc2cc(-c3ccc(Cl)cc3C(=O)O)ccc2Oc2ccccc2C(C)(C)C)c1 [Example 160, 4′-(2-tert-butylphenoxy)-4-chloro-3′-(3-m-tolylureido)biphenyl-2-carboxylic acid] | 1320 |
| Cc1ccccc1NC(=O)Nc1cc(-c2ccc(C(=O)O)cc2)ccc1Oc1ccccc1C(C)(C)C [Example 200, 4′-(2-tert-butylphenoxy)-3′-- (3-o-tolylureido) biphenyl-4-carboxylic acid] | 1520 |
| CC(C)(C)c1ccccc1Oc1ccc(-c2ccc(C(=O)O)cc2)cc1NC(=O)Nc1ccccc1C(F)(F)F [Example 210, 4′-(2-tert-butylphenoxy)-3′-(3-(2-(trifluoromethyl)phenyl)ureido) biphenyl-4-carboxylic acid] | 1540 |
| COc1ccc(-c2ccc(Oc3c(C)cccc3C(C)(C)C)c(NC(=O)Nc3ccccc3C)c2)cc1C(=O)O [Example 59, 4′-(2-tert-butyl-6-methylphenoxy)-4-methoxy-3′-(3-o-tolylureido)biphenyl-3-carboxylic acid] | 880 |
| Cc1ccc(NC(=O)Nc2cc(-c3cccc(C(=O)O)c3)ccc2Oc2ccc(Cl)cc2)cc1 [Example 248, 4′-(4-chlorophenoxy)-3′-(3-p-tolylureido) biphenyl-3-carboxylic acid] | 1490 |
| COc1ccc(-c2ccc(Oc3ccccc3C(C)(C)C)c(NC(=O)Nc3ccc(N(C)C)cc3)c2)cc1C(=O)O [Example 101, 4′-(2-(tert-butyl)phenoxy)-3′-(3-(4-(dimethylamino)phenyl)ureido)-4-methoxy-[1,1′-biphenyl]-3-carboxylic acid] | 1010 |
| CCCCNC(=O)Nc1cc(-c2ccc(OC)c(C(=O)O)c2)ccc1Oc1ccccc1C(C)(C)C [Example 90, 4′-(2-(tert-butyl)phenoxy)-3′-(3-(n-butyl)ureido)-4-methoxy-[1,1′-biphenyl]-3-carboxylic acid] | 260 |
| COc1ccc(-c2ccc(Oc3ccccc3Cl)c(NC(=O)Nc3ccccc3C(F)(F)F)c2)cc1C(=O)O [Example 52, 4′-(2-chlorophenoxy)-4-methoxy-3′-(3-(2-(trifluoromethyl)phenyl)ureido)biphenyl-3-carboxylic acid] | 1270 |
| CC(C)(C)c1ccccc1Oc1ccc(-c2ccc(C(=O)O)c(F)c2)cc1NC(=O)Nc1ccccc1Cl [Example 217, 4′-(2-tert-butylphenoxy)-3′-(3-(2-chlorophenyl)ureido)-3-fluorobiphenyl-4-carboxylic acid] | 1250 |
| Cc1cccc(NC(=O)Nc2cc(-c3cccc(C(=O)O)c3)ccc2Oc2ccc(Cl)cc2)c1 [Example 249, 4′-(4-chlorophenoxy)-3′-(3-m-tolylureido) biphenyl-3-carboxylic acid] | 2550 |
